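In this assay, cells in 96-well plates receive the compound at five concentrations for 48 hours. Endpoints are linearly interpolated between the surrounding concentrations. Here, GI50 denotes the concentration required for 50% inhibition of growth.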 The source made the active and inactive calls. No stated cut-off is given here; in the data, active = GI50 up to about 1.1 µM and inactive = higher.
What was measured:
Experiment in all cases: inhibition of tumour cell growth, NCI panel, 48 h
SNB-78 = system: SNB-78
DMS-273 = system: DMS-273
KM-20L2 = system: KM-20L2
RXF 631 = system: RXF 631
XF498 = system: XF498
LXFL 529 = system: LXFL 529
DLD-1 = system: DLD-1
DMS-114 = system: DMS-114
HOP-18 = system: HOP-18

Measured: GI50

NCCNC(=O)c1cccc2cc3ccccc3nc12
inactive: SNB-78 8630 nM | DMS-273 2300 nM | KM-20L2 1610 nM | RXF 631 4470 nM | XF498 2040 nM | LXFL 529 4950 nM | DLD-1 2770 nM | DMS-114 1770 nM | HOP-18 14700 nM

Source: ChEMBL document CHEMBL1201862, “PubChem BioAssay data set” (2004)
